Source: patent US10617664B2, “Brain derived PPARα ligands” (Rush University Medical Center, priority 2015, dated 2020)

System: CREB
Assay: Immunoblot of CREB in Ppara-null hippocampal neurons transduced with Ppara constructs
Type: cell-based, mouse
Conditions: FL-Ppara
Method: (FIG. 17A) Immunoblot analyses followed by densitometric analyses of NR2A (FIG. 17B), GluR1 (FIG. 17C) and CREB (FIG. 17D) were performed in Ppara-null and WT hippocampal neurons treated with 5 μM HEX, 5 μM OCT and 50 μM HMB. Data are mean±SD of three different experiments. ^ap<0.05 versus WT-control. Immunocytochemical analyses of NR2A (FIG. 17E) and GluR1 (FIG. 17F) in WT and Ppara-null hippocampal neurons treated with HEX, OCT and HMB. Hippocampal neurons were transduced with lenti-GFP for 48 h followed by treatment with different ligands. Immunoblot analyses followed by relative densitometric analyses of CREB in Ppara-null hippocampal neurons transduced with lentivirions containing different Ppara constructs followed by treatment with HEX (FIG. 17G-H), OCT (FIG. 17I-J) and HMB (FIG. 17K-L). Bands were scanned and presented as relative to control (FIG. 17H, HEX; FIG. 17J, OCT; FIG. 17L, HMB). Data are mean±SD of three different experiments. ^ap<0.05 vs FLPpara control.
For whole-cell and tissue lysates, samples were homogenized in RIPA buffer containing protease and phosphatase inhibitors (Sigma), passed 10 times through a 26-gauge needle, rotated end over end for 30 min at 4° C., and centrifuged for 10 min at 18,000×g. The supernatant was aliquoted and stored at −80° C. until use. Protein concentrations were determined using a NanoDrop 2000 (Thermo Fisher), and 15-30 μg sample was heat-denatured and resolved on 10% or 12% polyacrylamide-SDS gels, transferred to 0.45 μm nitrocellulose membranes under semidry conditions (15V for 12 min). Membranes were blocked for 1 h with blocking buffer (Li-Cor), incubated with primary antibodies overnight at 4° C. under shaking conditions, washed, incubated with IR-dye-labeled secondary antibodies (1:17,000; Li-Cor) for 45 min at room temperature, washed, and visualized with the Odyssey Infrared Imaging System (Li-Cor). Blots were converted to grayscale and then binary, analyzed using Fiji, and normalized to appropriate loading controls.

Row | SMILES | expression of CREB
1 | CCCCCCCCCCCCCCCC(N)=O [HEX, hexadecanamide] | stimulated
2 | CCOC(=O)C(C)(C)C(C)O (stereo not drawn) [HMB] | stimulated
3 | CCCCCCCCC=CCCCCCCCC(N)=O [OCT, 9-octadecenamide] | stimulated

Same assay, conditions: lenti-Y314D-Ppara

Row | SMILES | expression of CREB
4 | CCCCCCCCCCCCCCCC(N)=O [HEX, hexadecanamide] | only partially restored
5 | CCOC(=O)C(C)(C)C(C)O (stereo not drawn) [HMB] | only partially restored
6 | CCCCCCCCC=CCCCCCCCC(N)=O [OCT, 9-octadecenamide] | only partially restored

Same assay, conditions: lenti-Y464D-Ppara

Row | SMILES | expression of CREB
7 | CCCCCCCCCCCCCCCC(N)=O [HEX, hexadecanamide] | remained unable to increase
8 | CCOC(=O)C(C)(C)C(C)O (stereo not drawn) [HMB] | remained unable to increase
9 | CCCCCCCCC=CCCCCCCCC(N)=O [OCT, 9-octadecenamide] | remained unable to increase

Same assay, conditions: lenti-Y464D/Y314D-Ppara

Row | SMILES | expression of CREB
10 | CCCCCCCCCCCCCCCC(N)=O [HEX, hexadecanamide] | remained unable to increase
11 | CCOC(=O)C(C)(C)C(C)O (stereo not drawn) [HMB] | remained unable to increase
12 | CCCCCCCCC=CCCCCCCCC(N)=O [OCT, 9-octadecenamide] | remained unable to increase

System: astrocytes
Assay: MTT cell viability in PPRE-luciferase transfected astrocytes
Type: cell-based, mouse
Conditions: higher concentrations
Method: Astrocytes plated at 60-70% confluence were transfected with tk-PPREx3-Luc, a PPRE-dependent luciferase reporter construct. After 24 h of transfection, cells were treated with different concentrations of HEX (FIG. 10A), OCT (FIG. 10B) and HMB (FIG. 10C) for 4 h followed by monitoring luciferase activity. Under similar experimental condition, MTT was performed to understand the effect of these ligands on cell viability (FIG. 10D, HEX; FIG. 10E, OCT; FIG. 10F, HMB). Results are mean±SD of three independent experiments. ^ap<0.001 vs. control. Ppara-null astrocytes were transduced with lentivirions containing empty vector (FIG. 10G), FL-Ppara (FIG. 10H), Y314D-Ppara (FIG. 10I), Y464D-Ppara (FIG. 10J), and Y314D/Y464D-Ppara (FIG. 10K) for 48 h followed by transfection with tk-PPREx3-Luc. After 24 h of transfection, cells were treated with different doses of HEX, OCT and HMB for 4 h followed by monitoring luciferase activity. PPRE luciferase activity was assayed in Ppara-null astrocytes transduced with lentivirions containing empty vector (FIG. 10L), FL-Ppara (FIG. 10M), Y314D-Ppara (FIG. 10N), Y464D-Ppara (FIG. 10O), and Y314D/Y464D-Ppara (FIG. 10P) after treatment with different doses of WY14643, fenofibrate, and clofibrate. PPRE luciferase activity was assayed in primary hippocampal neurons transduced with lentivirions containing empty vector (FIG. 10Q), FL-Ppara (FIG. 10R), Y314D-Ppara (FIG. 10S), Y464D-Ppara (FIG. 10T), and Y314D/Y464D-Ppara (FIG. 10U) after treatment with different doses of HEX, OCT and HMB. Results are mean±SD of three independent experiments. ^ap<0.001 vs. control.

Row | SMILES | cytotoxicity (MTT)
13 | CCCCCCCCCCCCCCCC(N)=O [HEX, hexadecanamide] | significant level of cytotoxicity
14 | CCOC(=O)C(C)(C)C(C)O (stereo not drawn) [HMB] | significant level of cytotoxicity
15 | CCCCCCCCC=CCCCCCCCC(N)=O [OCT, 9-octadecenamide] | significant level of cytotoxicity

System: Ppara-null hippocampal neurons
Assay: Dendritic spine density (phalloidin) in transduced Ppara-null hippocampal neurons
Type: cell-based, mouse
Conditions: lenti-FL-Ppara
Method: Ppara-null hippocampal neurons were transduced with lentivirions containing GFP (vector), FL-Ppara, and Y464D-Ppara for 48 h followed by treatment with vehicle (DMSO) (FIG. 11A), OCT (FIG. 11B), HEX (FIG. 11C), HMB (FIG. 11D), and WY14643 (FIG. 11E) for 24 h. Then neurons were stained for phalloidin to measure spine density. FIG. 11F) A representative picture of dendrite with spines (Cyan color) used for counting area of spine heads. Area of spine heads (FIG. 11G) and number of spines (FIG. 11H) in 10 μm of dendrites. Results are mean±SEM of 5 neurons per group. ^ap<0.05 vs vector only; ^bp<0.05 vs FL-Ppara. AMPA-driven calcium influx was measured in OCT (red), HEX (green) and HMB (purple)-treated Ppara-null hippocampal neurons transduced with lentivirions containing FL-Ppara (FIG. 11I), Y314D-Ppara (FIG. 11J), Y464D-Ppara (FIG. 11K), and Y314D/Y464D-Ppara (FIG. 11L). All neurons were treated with 50 μM of NMDA receptor antagonist N20C to inhibit passive calcium flow through NMDA receptor. (FIG. 11M-P) Similarly NMDA-driven calcium influx was measured in the lentivius-infected Ppara-null hippocampal neurons in the presence of different endogenous ligands. In these cases, Naspm-HCl was treated to stop the passive flow of calcium currents through AMPA receptor. Results are mean of three independent experiments.
Dendritic spines are the crucial mediators of synaptic transmission among central neurons and often serve as a primary candidate for the long term morphological substrates of neuronal plasticity^12,13. Therefore, the effect of these ligands on the increase of spine density in cultured hippocampal neurons was studied. Briefly, mouse Ppara-null hippocampal neurons were transduced with lentivirus containing empty vector, FL-Ppara, or Y464D-Ppara for a week followed by the treatment with OCT, HEX, and HMB for four more days. After that, neurons were labelled with phalloidin to monitor the spine density. […] This observation was further validated by measuring the area of spine heads (FIG. 11F-G) and number of spines (FIG. 11H) in HEX, OCT, and HMB-treated Ppara-null neurons. HEX (FIG. 17G-H), OCT (FIG. 17I-J) and HMB (FIG. 17K-L) stimulated the expression of CREB in Ppara-null hippocampal neurons that were transduced with lentivirons containing the FL-Ppara gene.
Hippocampal regions were dissected from 18-day-old embryonic fetus as described elsewhere (PMID: 25007337), combined and plated in poly-D-lysine coated plate for another 2-3 weeks for branching. After that, these neurons were transduced with GFP-containing lentivirions for 2 d. Neurons were stained with Dylight-554-conjugated phalloidin (Cat #21834; Thermofisher) as per manufactures protocol and visualized in fluorescence microscope. […]

Row | SMILES | density of spines
16 | CCCCCCCCCCCCCCCC(N)=O [HEX, hexadecanamide] | stimulated
17 | CCOC(=O)C(C)(C)C(C)O (stereo not drawn) [HMB] | stimulated
18 | CCCCCCCCC=CCCCCCCCC(N)=O [OCT, 9-octadecenamide] | stimulated
